This note sets out measurements from patent publication US20060276393A1, “Novel compositions for preventing and treating neurodegenerative and blood coagulation disorders” (Sirtris Pharmaceuticals, Inc., priority 2005, published 2006).

One experiment deals with T1, recombinant human SIRT1 (Homo sapiens, UniProt Q96EB6).
T1 sequence (Q96EB6 1-747): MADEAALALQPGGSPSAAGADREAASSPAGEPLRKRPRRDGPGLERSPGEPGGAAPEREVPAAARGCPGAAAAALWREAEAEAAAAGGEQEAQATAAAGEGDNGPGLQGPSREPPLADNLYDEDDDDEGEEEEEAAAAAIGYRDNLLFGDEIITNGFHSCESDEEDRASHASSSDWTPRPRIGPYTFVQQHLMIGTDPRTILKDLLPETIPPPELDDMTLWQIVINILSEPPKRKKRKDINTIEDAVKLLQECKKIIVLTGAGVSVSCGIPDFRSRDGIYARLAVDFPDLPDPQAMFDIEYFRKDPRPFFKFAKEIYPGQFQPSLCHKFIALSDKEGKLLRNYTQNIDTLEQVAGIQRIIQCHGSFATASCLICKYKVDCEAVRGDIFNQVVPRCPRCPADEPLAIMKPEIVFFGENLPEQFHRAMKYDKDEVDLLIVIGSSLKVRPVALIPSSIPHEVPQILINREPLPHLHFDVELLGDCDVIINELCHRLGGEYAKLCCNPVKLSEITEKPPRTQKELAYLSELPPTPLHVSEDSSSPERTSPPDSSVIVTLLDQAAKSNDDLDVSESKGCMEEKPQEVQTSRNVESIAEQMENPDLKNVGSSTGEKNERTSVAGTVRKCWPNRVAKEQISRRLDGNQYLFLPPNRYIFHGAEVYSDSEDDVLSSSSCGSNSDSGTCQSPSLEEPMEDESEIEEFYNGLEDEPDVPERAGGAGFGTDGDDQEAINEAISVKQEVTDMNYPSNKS
Briefly: SIRT1 fluorescent deacetylation assay (p53-382 acetylated peptide). Conditions: 25 μM NAD+, 25 μM p53-382 acetylated peptide, compounds at 100 μM. Type of experiment: biochemical. The source says:
Lines represent non-linear least-squares fits to the Michaelis-Menten equation. […] Lines represent non-linear least-squares fits to the Michaelis-Menten equation. […] Error bars are standard errors of the mean.
To identify compounds that modulate SIRT1 activity, a number of small molecule libraries were screened using a fluorescent deacetylation assay in 96-well plates^26. The substrate used in the assay was a fluorogenic peptide based on the sequence encompassing the p53-K382 acetylation site, a known target of SIRT1 in vivo^20,21,27. […] The small molecule libraries included analogues of nicotinamide, ε-acetyl lysine, NAD^+, nucleotides, nucleotide analogues and purinergic ligands.
His6-tagged recombinant SIRT1 and GST-tagged recombinant Sir2 were prepared as previously described^26. From 0.1 to 1 μg of SIRT1 and 1.5 μg of Sir2 were used per deacetylation assay (in 50 μl total reaction) as previously described^26.
Themed compound libraries (BIOMOL) were used for primary and secondary screening. Most polyphenol compounds were dissolved at 10 mM in dimethylsulfoxide (DMSO) on the day of the assay. For water soluble compounds and negative controls, 1% v/v DMSO was added to the assay. […] Unless otherwise indicated all initial rate measurements were means of three or more replicates, obtained with single incubation times, at which point 5% or less of the substrate initially present had been deacetylated. Calculation of net fluorescence increases included subtraction of a blank value, which in the case of Sir2 was obtained by omitting the enzyme from the reaction and in the case of SIRT1 by adding an inhibitor (200 μM suramin or 1 mM nicotinamide) to the reaction prior to the acetylated substrate. […] All error bars represent the standard error of the mean.

In the next experiment the test system is C. elegans. Briefly: C. elegans lifespan. Format: in vivo. Conditions: N2 worms, E. coli as food. As for the experimental part:
Thus, the presence of resveratrol in the growth media of C. elegans extends their lifespan.
Bristol N2 (Caenorhabditis Genetics Center) was used as the wild-type strain. The sir-2.1 mutant strain was generated by backcrossing VC199 (sir-2.1(ok434)) to N2 four times. Cultures were grown on standard NGM media and maintained on E. coli strain OP50. For the lifespan assays, synchronized animals were transferred to treatment plates as young adults (2 d after hatching, day 0 of assay), and were transferred to fresh treatment plates every 2 days for the first 6 to 8 days of the assay. […] For some lifespan trials, heat-killed OP50 were used as a food source. OP50 cultures were heated to 65° C. for 30 minutes, then pelleted and resuspended in 1/10 volume in S Basal supplemented with 10 mM MgSO4. In all assays, worms were monitored daily for mortality by gently probing with a platinum pick. Assays were performed at 24° C. To assay worm feeding rates, worms at the indicated stages were placed on treatment plates (no FUdR) for 4-5 hours, then videoed for 1 minute using a Pixelink PL-662 camera. The frame rate was slowed and the pumping rate of the pharynx was counted. To assay fecundity, gravid hermaphrodites (5 per plate, raised from synchronized L1s on normal or treatment plates) were allowed to lay eggs on their respective media for 5 hours, and the total number of eggs was counted.

Experiment [1] has as its target T2, SIRT1 deacetylase (BIOMOL) (Homo sapiens, UniProt Q96EB6).
T2 construct: purchased BIOMOL
T2 sequence (Q96EB6 1-747): T1 sequence (Q96EB6 1-747)
The experiment can be described thus: High-throughput SIRT1 screening protocol (ICCB library). Type of experiment: biochemical. Conditions: positive controls; 200 μM NAD+, 5 μM Fluor de Lys-SIRT1; resveratrol 50 μM. As for the experimental part:
The reaction mixture contains (final): 0.5 units/reaction SIRT1 deacetylase (BIOMOL); 200 μM NAD^+; 5 μM Fluor de Lys-SIRT1 substrate (BIOMOL); buffer (25 mM Tris/Cl, pH 8.0, 137 mM NaCl, 2.7 mM KCl, 1 mM MgCl2, and 1 mg/ml BSA). In addition, a reaction mixture containing no enzyme was made so that each well receiving compound has a corresponding “no enzyme control” well. Reactions were performed in black 384 well plates (NUNC) in a final volume of 25 μl/well.
The reactions were started by combining enzyme and substrate in a reaction mixture immediately prior to aliquoting in plates (or substrate only for “no enzyme control” plates). Mixture were aliquoted to plates using Biotek μfill (Biotek Instruments). Control mixtures were manually added to designated wells. A library compound was added at a desired concentration by pin transfer to both “with enzyme” and “no enzyme” plates. Compounds were added in at least triplicate (with enzyme reaction in duplicate and no enzyme controls) at a final concentration of roughly 50 μM. The plates were incubated at 37° C for 30-60 minutes. Then 25 μl of 1× Developer II (BIOMOL) plus 2 mM nicotinamide were added to all wells to stop the reactions. The reactions were left for at least 30 minutes at 37° C. for the signal to develop. The plates were read in a microplate-reading fluorometer capable of excitation at a wavelength in the range of 350-380 nm and detection of emitted light in the range of 440-460 nm. A read time of 0.1 sec per well was used.

Experiment [2] concerns thoracic spinal cord of EAE SJL/J mice. Briefly: EAE spinal cord white matter damage. Type of experiment: in vivo, mouse. Conditions: FK506 5 mg/kg, significant. The source says: At day 40 post-immunization, mice from each group are sacrificed with an overdose of ketamine/xylazine. Spinal cords are dissected, fixed in 10% buffered formalin, and embedded in paraffin. Five micron thick sections are stained with Hematoxylin and Eosin (H&E) and Luxol Fast Blue (LFB) to assess myelin loss. Bielshowesky's silver impregnation is used to evaluate axonal integrity. To asses the amount of axonal loss, paraffin sections are exposed to monoclonal antibodies against mouse non-phosphorylated neurofilament H (Clone SMI-32, Stemberger Monoclonals, Baltimore, USA) and monoclonal antibodies against APP (Clone 22C11, Chemicon). SMI-32 is detected with a Cy3-labeled antibody and visualized by fluorescence microscopy. Anti-APP antibodies are detected by incubation with ColonoPAP, and APP-positive axons are visualized with 3,3′-diaminobenzidine (DAB).
The percentage of the spinal cord showing damage was determined in the cervical, thoracic and lumbar cord. At each level, regions in the 1) dorsal columns and 2) the lateral and ventral white matter tracts containing damaged fibers was circumscribed on photomontages (final magnification ×100) of the entire spinal cord. Damaged areas in each of the two regions were measured using a SummaSketch III (Summagraphics, Seymour, Conn.) digitizing tablet and BIOQUANT Classic 95 software (R&M Biometrics, Nashville, Tenn.). Measurements were also be made of the total area (damaged and nondamaged) of the 1) dorsal columns and 2) the lateral and ventral columns. For each section (one section per animal), the cumulative percent lesion areas were calculated for each region (dorsal column, lateral and ventral columns).

The subject of experiment [3] is Experimental autoimmune encephalomyelitis (EAE) in SJL/J mice. Conditions: FK506 5 mg/kg/day.
In a further experiment the test system is S. cerevisiae. Briefly: Yeast replicative lifespan. Format: cell-based. To be noted: 10 μM; 2% (w/v) glucose YPD; untreated 100%. As for the experimental part:
Average lifespan for wild type, 22.9 generations, quercetin, 23.4; piceatannol. […]
All yeast strains were grown at 30° C. in complete yeast extract/bactopeptone, 2.0% (w/v) glucose (YPD) medium except where stated otherwise. Calorie restriction was induced in 0.5% glucose. Synthetic complete (SC) medium consisted of 1.67% yeast nitrogen base, 2% glucose, 40 mg/litre each of auxotrophic markers. SIR2 was integrated in extra copy and disrupted as described^5. Other strains are described elsewhere^26. For cellular deacetylation assays, HeLa S3 cells were used. U20S osteosarcoma and human embryonic kidney (HEK 293) cells were cultured adherently in Dulbecco's Modified Eagle's Medium (DMEM) containing 10% fetal calf serum (FCS) with 1.0% glutamine and 1.0% penecillin/streptomycin. HEK 293 overexpressing dominant negative SIRT1 H363Y was a gift of R. Frye (U. Pittsburgh).
Lifespan measurements were performed using PSY316AT MATα as previously described^35. All compounds for lifespan analyses were dissolved in 95% ethanol and plates were dried and used within 24 hours. Prior to lifespan analysis, cells were pre-incubated on their respective media for at least 15 hours. Following transfer to a new plate, cells were equilibrated on the medium for a minimum of 4 hours prior to micro-manipulating them. At least 30 cells were examined per experiment and each experiment was performed at least twice. Statistical significance of lifespan differences was determined using the Wilcoxon rank sum test. Differences are stated to be significant when the confidence is higher than 95%.

Experiment [4] has as its target p53-382 acetylated peptide (human) (UniProt P04637).

Take `COc1ccc(/C=C/c2cc(O)cc(O)c2)cc1` [BML-233, 3,5-Dihydroxy-4′-methoxy-trans-stilbene]: the “SIRT1 stimulating activity (in words)” value on recombinant human SIRT1 was “strong activator of sirtuins”. In addition, the “% change in C. elegans lifespan relative to untreated organisms” value in the experiment on C. elegans ((10)) amounted to 70%; with C. elegans ((500)) it was 50%. Moreover, in experiment [1], the “activated SIRT1” value worked out at 2.1 fold.

For the molecule `C=CC[C@@H]1/C=C(\C)C[C@H](C)C[C@H](OC)[C@H]2O[C@@](O)(C(=O)C(=O)N3CCCC[C@H]3C(=O)O[C@H](/C(C)=C/[C@@H]3CC[C@@H](O)[C@H](OC)C3)[C@H](C)[C@@H](O)CC1=O)[C@H](C)C[C@@H]2OC` [FK506], the “reduction of extent of damage in dorsal, lateral and ventral white matter” value in experiment [2] was “over 90%”. Moreover, the “Mean EAE Score - Last 10 Days” value in experiment [3] (vehicle 23.00) was determined as 7.75. For the same molecule, in experiment [3] (vehicle 72.38), the “Mean total EAE score” value amounted to 25.38.

Take `Oc1cc(O)cc(/C=C/c2ccccc2)c1` [Pinosylvin, 3,5-Dihydroxy-trans-stilbene]: the “SIRT1 stimulating activity (in words)” value at recombinant human SIRT1 was “did the least to decrease activity”; on recombinant human SIRT1 (listed as pinosylvin), “did not significantly diminish the SIRT1 activating effect”. The “% change in yeast replicative lifespan relative to untreated organisms (10 μM)” value with S. cerevisiae was found to be 114%. In addition, in experiment [1], the “activated SIRT1” value worked out at 3.28 fold.

On to His6-tagged recombinant SIRT1 (enzyme), for which, in experiment [4], the Km for the acetylated peptide (initial deacetylation rate, fluorescence) worked out at 64 µM.
